Laboratory results as given in patent US4439365A, “Novel hydroxy substituted prostanoic acids, esters, congeners, intermediates and process” (American Cyanamid Company, priority 1979, dated 1984).

How the values were obtained:
[1] = system: ulcerogenic properties of indomethacin; experiment: Protection against indomethacin-induced ulcers in rats; type: in vivo; conditions: indomethacin 20 mg./kg. s.c.
Protocol: The compounds of this invention provide protection against the ulcerogenic properties of indomethacin. This assay was carried out in the following manner.
Rats were starved for 48 hours (water was given ad libitum). Indomethacin (20 mg./kg. of body weight) was administered by the subutaneous route and one-half the dose of the test compound was administered by gavage at the same time. After three hours, the second half of the test compound was administered also by Gavage. Five hours after the administration of indomethacin the animals were decapitated and the stomachs removed. The stomachs were washed with distilled water, blotted on gauze, cut along the larger curvature, and the contents rinsed with distilled water. The stomachs were spread out, pinned on a cork and visualized under magnifying glass for ulcers. The criteria for scoring of ulcers was as previously reported. [Abdel-Galil et al. Brit. J. Pharmac. Chemotherapy 33:1-14 (1968)]. […]
Control animals treated with indomethacin but not test compound consistently give scores of about 3.0-3.5. Control animals treated with neither indomethacin nor test compound give scores of about 0.5-0.8. Compounds producing a score of 2.5 or lower are considered to be active.

gastric acid secretion = experiment: Gastric acid secretion inhibition, modified Shay rat procedure; type: in vivo, rats (male, CFE strain); conditions: pylorus-ligated rats, intraduodenal dose 100 mg./kg., 3 hours, 20% or more active, read-out: Percent Inhibition of gastric acid secretion
Protocol: The novel compounds of the present invention are also effective inhibitors of gastric acid secretion and of ulcer development in experimental animals, and thus are potentially valuable as agents for the control of gastric acid secretion and of gastric erosion and as anti-ulcer agents. Gastric acid secretion inhibitory action is usually measured by the "Shay rat" procedure^(1,2) with some modifications as follows.
The rats (male, CFE strain), were starved for 48 hours (water was given ad libitum) to permit evacuation of stomach contents. On the morning of the experiment, under ether anesthesia, the abdominal region was shaved and a midline incision (1-11/2") was made with a scapel. […]
The abdominal cavity was exposed by cutting with scissors and the esophagus close to the stomach was clamped off with a hemostat, the stomach was removed by cutting above the hemostat (the esophagus was cut) and between the two sutures. […] The supernatant was collected, volume measured and recorded, 2 drops of a phenolphthalein indicator (1% in 95% ethanol) were added and the solution was titrated with 0.02 N NaOH (or with 0.04 N NaOH when large volumes of stomach contents were encountered) to pH 8.4 (because of usual coloring of the stomach contents, phenolphthalein was only used to permit visual indication that the end point was near) and the amount of acid present was calculated. […]

[2] = total oral dose 25 mg./kg. in two halves by gavage, scale 0 normal stomach to 4 many ulcers, mainly large, 2.5 or lower active, control 3.2

Question: For `CCCCC[C@@H](O)/C=C/[C@H]1CCC(=O)[C@@H]1CCCCSCC(=O)O` (relative stereo) [9-oxo-3-thin-15-epi-hydroxy-13-trans-prostenoic acid], which “Score Treated (ulcer score)” value [1, 2] is on record?
Answer: Its value is 2.3.

Question: Which “Score Treated (ulcer score)” value ([1]; total oral dose 12.5 mg./kg. in two halves by gavage, scale 0-4, 2.5 or lower active, control 3.0) does the source give for `CCCCCC(O)/C=C/[C@H]1CCC(=O)[C@]1(C)CCCCCCC(=O)O` (relative stereo) [9-oxo-8β-methyl-15-hydroxy-13-trans-prostenoic acid] here?
Answer: The value was 2.0.

Question: `CCCCCC(O)/C=C/C1CCC(=O)C1CCCCC(C)(C)CC(=O)O` (stereo not drawn) [9-oxo-15-hydroxy-3,3-dimethyl-13-trans-prostenoic acid] was tested. Which inhibition at 100 mg/kg (gastric acid secretion) did it give?
Answer: Its inhibition at 100 mg/kg is 51%.

Question: How did the “Score Treated (ulcer score)” value ([1]; total oral dose 100 mg./kg. in two halves by gavage, scale 0-4, 2.5 or lower active, control 3.0) turn out when `CCCCCC(O)/C=C\C1CCC(=O)C1CCCCCCC(=O)O` (stereo not drawn) [9-oxo-15-hydroxy-13-cis-prostenoic acid] was run?
Answer: Its value is 1.3.

Question: For `CCCCC[C@H](O)/C=C/[C@H]1CCC(=O)[C@@H]1CCCCSCC(=O)O` (relative stereo) [9-oxo-3-thia-15-hydroxy-13-trans-prostenoic acid], which “Score Treated (ulcer score)” value [1, 2] is on record?
Answer: The value was 1.8.

Question: How did the “Score Treated (ulcer score)” value [1, 2] turn out when `CCCCC(CC)C(O)/C=C/C1CCC(=O)C1CCCCCCC(=O)O` (stereo not drawn) [9-oxo-15-hydroxy-16-ethyl-13-trans-prostenoic acid] was run?
Answer: The value was 1.7.

Question: With `CCCCCC(O)/C=C/C1CCC(=O)C1CCCCCC(CC)C(=O)O` (stereo not drawn) [9-oxo-15-hydroxy-2-ethyl-13-trans-prostenoic acid] as the molecule, how does the “Score Treated (ulcer score)” value ([1]; total oral dose 50 mg./kg. in two halves by gavage, scale 0-4, 2.5 or lower active, control 3.0) read?
Answer: Its value is 2.2.
